US9290476B2, “Methylene linked quinolinyl modulators of RORγt” (Janssen Pharmaceutica NV, priority 2012, dated 2016)
Where two headings read alike, the source gives them in different places.

Columns and labels:
human RORγt LBD = human RORγt LBD (Homo sapiens (Human), UniProt P51449); assay: RORγt reporter assay (GAL4-RORγt LBD luciferase in HEK293T cells); format: cell-based; settings: for RORγt reporter Assay, % inhibition @ 6 μM / IC50: HEK293T cells; for IC50: 24 hours compound treatment; for inhibition at 6 µM: HEK-293T, read-out: RORγt reporter Assay, % inhibition @ 6 μM, HEK293T cells, 6 μM
Sequence of human RORγt LBD (P51449 258-518): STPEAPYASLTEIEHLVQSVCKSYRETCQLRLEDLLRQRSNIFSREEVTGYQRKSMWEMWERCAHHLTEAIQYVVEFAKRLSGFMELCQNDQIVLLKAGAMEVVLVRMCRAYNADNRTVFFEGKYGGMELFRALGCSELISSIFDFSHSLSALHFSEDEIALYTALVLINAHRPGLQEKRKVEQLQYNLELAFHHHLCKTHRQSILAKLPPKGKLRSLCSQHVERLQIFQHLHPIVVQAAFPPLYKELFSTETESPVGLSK
Summary of the method: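 HEK293T cells transiently co-transfected with GAL4-DBD–wild-type human RORγt LBD (pBIND) and GAL4-responsive firefly luciferase reporter (pGL4.31); renilla luciferase from pBIND normalises transfection/viability. Cells in phenol-red-free DMEM, 5% lipid-reduced FCS, treated with compound 24 h. Firefly/renilla ratio plotted against compound concentration.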

[1] = target: human RORγt ligand binding domain (RORγt LBD) (Homo sapiens (Human), UniProt P51449); assay: RORγt ThermoFluor assay (thermal shift binding affinity); settings: estimated from thermal shift
Sequence of human RORγt ligand binding domain (RORγt LBD) (P51449 other isoform, or with tags, fused parts or gaps): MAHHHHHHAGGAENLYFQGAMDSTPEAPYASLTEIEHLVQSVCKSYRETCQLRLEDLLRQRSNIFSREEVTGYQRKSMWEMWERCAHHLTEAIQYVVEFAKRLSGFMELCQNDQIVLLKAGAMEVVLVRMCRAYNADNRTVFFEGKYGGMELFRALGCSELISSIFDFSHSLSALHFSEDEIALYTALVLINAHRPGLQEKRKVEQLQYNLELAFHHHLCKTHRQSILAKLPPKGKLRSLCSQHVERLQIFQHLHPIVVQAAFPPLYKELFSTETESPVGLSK
Summary of the method: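 Thermal shift used 0.065 mg/mL RORγt LBD with 60 μM 1,8-ANS in 100 mM Hepes pH 7.0, 10 mM NaCl, 2.5 mM GSH and 0.002% Tween-20, heated at 1 °C/min. Fluorescence was excited at 380–400 nm and emission read at 500 nm.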

[2] = tested on: IL-17 production by CD4 T cells; assay: Human Th17 assay (IL-17 production by CD4 T cells under Th17 differentiation); format: cell-based; settings: human CD4+ T cells, IL-17 after 3 days, read-out: Human Th17 Assay, IC50 μM
Source text: The human Th17 assay tests the effect of RORγt modulatory compounds on IL-17 production by CD4 T cells under conditions which favor Th17 differentiation.
Total CD4^+ T cells were isolated from the peripheral blood mononuclear cells (PBMC) of healthy donors using a CD4^+ T cell isolation kit II, following the manufacturer's instructions (Miltenyi Biotec). Cells were resuspended in a medium of RPMI-1640 supplemented with 10% fetal bovine serum, penicillin, streptomycin, glutamate, and β-mercaptoethanol and were added to 96-well plates at 1.5×10^5 per 100 μL per well. 50 μL of compound at titrated concentrations in DMSO were added into each well at final DMSO concentration at 0.2%. Cells were incubated for 1 hour, then 50 μL of Th17 cell differentiation medium was added to each well. The final concentrations of antibodies and cytokines (R&D Systems) in differentiation medium were: 3×10^6/mL anti-CD3/CD28 beads (prepared using human T cell activation/expansion kit, Miltenyi Biotec), 10 μg/mL anti-IL4, 10 μg/mL anti-IFNγ, 10 ng/mL IL1β, 10 ng/mL IL23, 50 ng/mL IL6, 3 ng/mL TGFβ and 20 U/mL IL2. Cells were cultured at 37° C. and 5% CO2 for 3 days. Supernatants were collected and the accumulated IL-17 in culture was measured by using MULTI-SPOT® Cytokine Plate following manufacture's instruction (Meso Scale Discovery). The plate was read using Sector Imager 6000, and IL-17 concentration was extrapolated from the standard curve. The IC50s were determined by GraphPad.

Compound	RORγt reporter Assay, % inhibition @ 6 μM (human RORγt LBD)	IC50 (human RORγt LBD)	Kd [1]	IC50 ([2]; Homo sapiens, CD4+ T, 72 h)	inhibition at 6 µM (human RORγt LBD)	IC50 [2]
COc1nc2ccc(C(O)(c3ccc(Cl)cc3)c3cncn3C)cc2c(Cl)c1Cc1cc2ccccc2s1 (single isomer, unassigned) [Example 36C, (3-(benzo[b]thiophen-2-ylmethyl)-4-chloro-2-methoxyquinolin-6-yl)(4-chlorophenyl)(1-methyl-1H-imidazol-5-yl)methanol]	101%	0.1 µM	0.011 µM	0.066 µM	–	–
COc1nc2ccc(C(O)(c3ccc(C(F)(F)F)nc3)c3cncn3C)cc2c(Cl)c1Cc1cc2ccccc2s1 (single isomer, unassigned) [Example 37B, (3-(benzo[b]thiophen-2-ylmethyl)-4-chloro-2-methoxyquinolin-6-yl)(1-methyl-1H-imidazol-5-yl)(6-(trifluoromethyl)pyridin-3-yl)methanol]	–	0.16 µM	0.044 µM	0.11 µM	99%	–
COc1nc2ccc(C(O)(c3ccc(C(F)(F)F)nc3)c3cncn3C)cc2c(Cl)c1Cc1cc2ccccc2s1 (single isomer, unassigned) [Example 37C, (3-(benzo[b]thiophen-2-ylmethyl)-4-chloro-2-methoxyquinolin-6-yl)(1-methyl-1H-imidazol-5-yl)(6-(trifluoromethyl)pyridin-3-yl)methanol]	102%	0.11 µM	0.0035 µM	–	–	0.15 µM
COc1nc2ccc(C(O)(c3ccc(F)cc3)c3cncn3C)cc2c(Cl)c1Cc1ccc(S(C)(=O)=O)cc1 (single isomer, unassigned) [Example 54C, (4-chloro-2-methoxy-3-(4-(methylsulfonyl)benzyl)quinolin-6-yl)(4-fluorophenyl)(1-methyl-1H-imidazol-5-yl)methanol]	93%	0.098 µM	0.023 µM	0.057 µM	–	–
COc1nc2c(F)cc(C(O)(c3ccc(C(F)(F)F)nc3)c3cncn3C)cc2c(Cl)c1Cc1ccc(-n2cccn2)cc1 (single isomer, unassigned) [Example 58B, (3-(4-(1H-pyrazol-1-yl)benzyl)-4-chloro-8-fluoro-2-methoxyquinolin-6-yl)(1-methyl-1H-imidazol-5-yl)(6-(trifluoromethyl)pyridin-3-yl)methanol]	–	0.055 µM	0.014 µM	0.1 µM	103%	–
COc1nc2c(OC)cc(C(O)(c3ccc(C(F)(F)F)nc3)c3cncn3C)cc2c(Cl)c1Cc1ccc(-n2cccn2)cc1 (single isomer, unassigned) [Example 59B, (3-(4-(1H-pyrazol-1-yl)benzyl)-4-chloro-2,8-dimethoxyquinolin-6-yl)(1-methyl-1H-imidazol-5-yl)(6-(trifluoromethyl)pyridin-3-yl)methanol]	–	0.14 µM	0.0044 µM	0.098 µM	106%	–
Cc1cc(C(O)(c2ccc(C(F)(F)F)nc2)c2cncn2C)cc2c(C#N)c(Cc3ccc(-n4cccn4)cc3)c(C#N)nc12 (single isomer, unassigned) [Example 65B, 3-(4-(1H-pyrazol-1-yl)benzyl)-6-(hydroxy(1-methyl-1H-imidazol-5-yl)(6-(trifluoromethyl)pyridin-3-yl)methyl)-8-methylquinoline-2,4-dicarbonitrile]	–	0.13 µM	0.14 µM	–	101%	0.22 µM
Cc1cc(C(O)(c2ccc(C(F)(F)F)nc2)c2cncn2C)cc2c(C#N)c(Cc3ccc(-n4cccn4)cc3)c(C#N)nc12 (single isomer, unassigned) [Example 65C, 3-(4-(1H-pyrazol-1-yl)benzyl)-6-(hydroxy(1-methyl-1H-imidazol-5-yl)(6-(trifluoromethyl)pyridin-3-yl)methyl)-8-methylquinoline-2,4-dicarbonitrile]	100%	0.046 µM	0.0042 µM	–	–	0.045 µM
